Positions of bridges follow the written chain, without caps; N, C: chain ends. Residues, ends and D or L forms follow the SMILES beside them.
Key:
[1] = biological target: T1, GC-C (Homo sapiens, UniProt P25092); type: cell-based; conditions: cGMP response in T84 cells
[2] = biological target: T1, GC-C; type: binding
[3] = test system: female CD-1 mice; type: in vivo; conditions: oral gavage, % distance travelled by charcoal front in small intestine

T1 sequence (P25092 24-1073 limits assumed): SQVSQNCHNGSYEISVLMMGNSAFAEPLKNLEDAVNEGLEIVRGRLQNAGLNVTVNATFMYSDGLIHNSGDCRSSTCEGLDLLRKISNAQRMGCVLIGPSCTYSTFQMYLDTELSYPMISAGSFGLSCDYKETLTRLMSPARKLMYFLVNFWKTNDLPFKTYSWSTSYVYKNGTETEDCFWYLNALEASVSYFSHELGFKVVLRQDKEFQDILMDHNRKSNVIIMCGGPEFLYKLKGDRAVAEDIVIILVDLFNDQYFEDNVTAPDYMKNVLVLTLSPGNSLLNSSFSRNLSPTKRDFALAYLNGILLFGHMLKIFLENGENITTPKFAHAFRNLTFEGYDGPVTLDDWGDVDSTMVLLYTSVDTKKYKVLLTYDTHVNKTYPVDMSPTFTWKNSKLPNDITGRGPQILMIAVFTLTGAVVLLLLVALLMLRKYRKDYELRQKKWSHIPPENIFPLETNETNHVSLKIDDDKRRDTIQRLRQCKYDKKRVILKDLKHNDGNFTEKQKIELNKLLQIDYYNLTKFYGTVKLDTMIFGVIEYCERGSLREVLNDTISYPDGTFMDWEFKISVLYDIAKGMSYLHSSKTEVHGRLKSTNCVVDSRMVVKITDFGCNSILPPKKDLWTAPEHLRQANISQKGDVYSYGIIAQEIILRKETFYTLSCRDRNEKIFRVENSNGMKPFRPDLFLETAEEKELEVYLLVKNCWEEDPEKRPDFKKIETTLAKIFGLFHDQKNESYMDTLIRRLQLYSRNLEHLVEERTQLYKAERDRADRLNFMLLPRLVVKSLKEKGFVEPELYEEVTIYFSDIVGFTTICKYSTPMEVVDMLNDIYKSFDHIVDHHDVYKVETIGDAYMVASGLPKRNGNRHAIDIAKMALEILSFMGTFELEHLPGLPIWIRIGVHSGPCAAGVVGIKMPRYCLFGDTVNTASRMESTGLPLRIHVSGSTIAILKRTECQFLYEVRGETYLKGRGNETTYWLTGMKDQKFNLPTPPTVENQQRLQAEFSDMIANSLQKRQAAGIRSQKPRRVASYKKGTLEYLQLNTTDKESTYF

SMILES | Ratio EC50 pH 8/EC50 pH 5 [1] | Ratio Ki pH 8/Ki pH 5 [2] | ED50 in the gastrointestinal transit assay [3] [µg/kg]
C[C@H](N)C(=O)N[C@@H](CC(=O)O)C(=O)N[C@@H](CC(=O)O)C(=O)N[C@H]1CSSC[C@@H]2NC(=O)[C@@H]3CSSC[C@@H](C(=O)N[C@@H](Cc4ccc(O)cc4)C(=O)O)NC(=O)CNC(=O)[C@H]([C@@H](C)O)NC(=O)[C@H](CSSC[C@H](NC1=O)C(=O)N[C@@H](CCC(=O)O)C(=O)N[C@@H](Cc1ccc(O)cc1)C(=O)N3)NC(=O)[C@H](C)NC(=O)[C@@H]1CCCN1C(=O)[C@H](CC(N)=O)NC2=O [Peptide 9, ADDCCEYCCNPACTGCY] | 79.8 | 1.29 | –
CC(C)C[C@@H]1NC(=O)[C@H](CCC(=O)O)NC(=O)[C@@H]2CSSC[C@@H]3NC(=O)[C@H](C)NC(=O)[C@@H]4CCCN4C(=O)[C@H](CC(N)=O)NC(=O)[C@H](CSSC[C@H](NC(=O)[C@H](CC(=O)O)NC(=O)[C@H](CC(=O)O)NC(=O)[C@H](C)N)C(=O)N2)NC(=O)[C@H](CSSC[C@@H](C(=O)N[C@@H](Cc2ccc(O)cc2)C(=O)O)NC(=O)CNC(=O)[C@H]([C@@H](C)O)NC3=O)NC1=O [Peptide 13, ADDCCELCCNPACTGCY] | 62.5 | – | –
CC(C)C[C@@H]1NC(=O)[C@H](CCC(=O)O)NC(=O)[C@@H]2CSSC[C@@H]3NC(=O)[C@H](C)NC(=O)[C@@H]4CCCN4C(=O)[C@H](CC(N)=O)NC(=O)[C@H](CSSC[C@H](NC(=O)[C@H](CC(=O)O)NC(=O)[C@H](CC(=O)O)NC(=O)[C@@H]4CCCN4)C(=O)N2)NC(=O)[C@H](CSSC[C@@H](C(=O)N[C@@H](Cc2ccc(O)cc2)C(=O)O)NC(=O)CNC(=O)[C@H]([C@@H](C)O)NC3=O)NC1=O [Peptide 18, PDDCCELCCNPACTGCY] (H-PDDCCELCCNPACTGCY-OH; disulfide 4-9, 5-13, 8-16 (inferred); N-terminus and C-terminus assumed) | 205.2 | – | –
C[C@@H]1NC(=O)[C@@H]2CCCN2C(=O)[C@H](CC(N)=O)NC(=O)[C@@H]2CSSC[C@H](NC(=O)[C@H](CC(=O)O)NC(=O)[C@H](CC(=O)O)NC(=O)CN)C(=O)N[C@H]3CSSC[C@H](NC1=O)C(=O)N[C@@H]([C@@H](C)O)C(=O)NCC(=O)N[C@H](C(=O)N[C@@H](Cc1ccc(O)cc1)C(=O)O)CSSC[C@H](NC(=O)[C@H](Cc1ccc(O)cc1)NC(=O)[C@H](CCC(=O)O)NC3=O)C(=O)N2 [Peptide 7, GDDCCEYCCNPACTGCY] (H-GDDCCEYCCNPACTGCY-OH; disulfide 4-9, 5-13, 8-16 (inferred); N-terminus and C-terminus assumed) | 383 | – | –
C[C@@H]1NC(=O)[C@@H]2CCCN2C(=O)[C@H](CC(N)=O)NC(=O)[C@@H]2CSSC[C@H](NC(=O)[C@H](CC(=O)O)NC(=O)[C@H](CC(=O)O)NC(=O)[C@@H](N)CC(=O)O)C(=O)N[C@H]3CSSC[C@H](NC1=O)C(=O)N[C@@H]([C@@H](C)O)C(=O)NCC(=O)N[C@H](C(=O)N[C@@H](Cc1ccc(O)cc1)C(=O)O)CSSC[C@H](NC(=O)[C@H](Cc1ccc(O)cc1)NC(=O)[C@H](CCC(=O)O)NC3=O)C(=O)N2 [Peptide 5, DDDCCEYCCNPACTGCY] | 256 | 5.52 | 7.54
CC(C)C[C@@H]1NC(=O)[C@H](CCC(=O)O)NC(=O)[C@@H]2CSSC[C@@H]3NC(=O)[C@H](C)NC(=O)[C@@H]4CCCN4C(=O)[C@H](CC(N)=O)NC(=O)[C@H](CSSC[C@H](NC(=O)[C@H](CC(=O)O)NC(=O)[C@H](CC(=O)O)NC(=O)CN)C(=O)N2)NC(=O)[C@H](CSSC[C@@H](C(=O)N[C@@H](Cc2ccc(O)cc2)C(=O)O)NC(=O)CNC(=O)[C@H]([C@@H](C)O)NC3=O)NC1=O [Peptide 19, GDDCCELCCNPACTGCY] (H-GDDCCELCCNPACTGCY-OH; disulfide 4-9, 5-13, 8-16 (inferred); N-terminus and C-terminus assumed) | 61.5 | – | –
CC(C)C[C@@H]1NC(=O)[C@H](CCC(=O)O)NC(=O)[C@@H]2CSSC[C@@H]3NC(=O)[C@H](C)NC(=O)[C@@H]4CCCN4C(=O)[C@H](CC(N)=O)NC(=O)[C@H](CSSC[C@H](NC(=O)[C@H](CC(=O)O)NC(=O)[C@H](CC(=O)O)NC(=O)[C@@H](N)CC(N)=O)C(=O)N2)NC(=O)[C@H](CSSC[C@@H](C(=O)N[C@@H](Cc2ccc(O)cc2)C(=O)O)NC(=O)CNC(=O)[C@H]([C@@H](C)O)NC3=O)NC1=O [Peptide 11, NDDCCELCCNPACTGCY] | 2.7 | 6.43 | –
CC(C)C[C@@H]1NC(=O)[C@H](CCC(=O)O)NC(=O)[C@@H]2CSSC[C@@H]3NC(=O)[C@H](C)NC(=O)[C@@H]4CCCN4C(=O)[C@H](CC(N)=O)NC(=O)[C@H](CSSC[C@H](NC(=O)[C@H](CC(=O)O)NC(=O)[C@H](CC(=O)O)NC(=O)[C@@H](N)CC(=O)O)C(=O)N2)NC(=O)[C@H](CSSC[C@@H](C(=O)O)NC(=O)CNC(=O)[C@H]([C@@H](C)O)NC3=O)NC1=O [Peptide 20, DDDCCELCCNPACTGC] (H-DDDCCELCCNPACTGC-OH; disulfide 4-9, 5-13, 8-16 (inferred); N-terminus and C-terminus assumed) | 90 | 3.6 | –
C[C@@H]1NC(=O)[C@@H]2CCCN2C(=O)[C@H](CC(N)=O)NC(=O)[C@@H]2CSSC[C@H](NC(=O)[C@H](CC(=O)O)NC(=O)[C@H](CC(=O)O)NC(=O)[C@@H]3CCCN3)C(=O)N[C@H]3CSSC[C@H](NC1=O)C(=O)N[C@@H]([C@@H](C)O)C(=O)NCC(=O)N[C@H](C(=O)N[C@@H](Cc1ccc(O)cc1)C(=O)O)CSSC[C@H](NC(=O)[C@H](Cc1ccc(O)cc1)NC(=O)[C@H](CCC(=O)O)NC3=O)C(=O)N2 [Peptide 8, PDDCCEYCCNPACTGCY] (H-PDDCCEYCCNPACTGCY-OH; disulfide 4-9, 5-13, 8-16) | 58.2 | – | –
CC(C)C[C@@H]1NC(=O)[C@H](CCC(=O)O)NC(=O)[C@@H]2CSSC[C@@H]3NC(=O)[C@H](C)NC(=O)[C@@H]4CCCN4C(=O)[C@H](CC(N)=O)NC(=O)[C@H](CSSC[C@H](NC(=O)[C@H](CC(=O)O)NC(=O)[C@@H](N)CC(=O)O)C(=O)N2)NC(=O)[C@H](CSSC[C@@H](C(=O)N[C@@H](Cc2ccc(O)cc2)C(=O)O)NC(=O)CNC(=O)[C@H]([C@@H](C)O)NC3=O)NC1=O [Peptide 16, DDCCELCCNPACTGCY] (H-DDCCELCCNPACTGCY-OH; disulfide 3-8, 4-12, 7-15 (inferred); N-terminus and C-terminus assumed) | 26.9 | – | –
C[C@@H]1NC(=O)[C@@H]2CCCN2C(=O)[C@H](CC(N)=O)NC(=O)[C@@H]2CSSC[C@H](NC(=O)[C@H](CC(=O)O)NC(=O)[C@H](CC(=O)O)NC(=O)[C@@H](N)CC(N)=O)C(=O)N[C@H]3CSSC[C@H](NC1=O)C(=O)N[C@@H]([C@@H](C)O)C(=O)NCC(=O)N[C@H](C(=O)N[C@@H](Cc1ccc(O)cc1)C(=O)O)CSSC[C@H](NC(=O)[C@H](Cc1ccc(O)cc1)NC(=O)[C@H](CCC(=O)O)NC3=O)C(=O)N2 [Peptide 3, NDDCCEYCCNPACTGCY] (H-NDDCCEYCCNPACTGCY-OH; disulfide 4-9, 5-13, 8-16 (inferred); N-terminus and C-terminus assumed) | 25.3 | 17.5 | –

From US8735360B2 (priority 2009, dated 2014)
